Our source for the relative viability values is the supplement of paper PMC10307832.

Common to all, as to test: relative viability (nuclei count vs DMSO), 5 days (fraction); higher = more cells survive
Compound in the experiment “Dinaciclib + Foretinib”: CCc1cnn2c(NCc3ccc[n+]([O-])c3)cc(N3CCCC[C@H]3CCO)nc12 [Dinaciclib] + COc1cc2c(Oc3ccc(NC(=O)C4(C(=O)Nc5ccc(F)cc5)CC4)cc3F)ccnc2cc1OCCCN1CCOCC1 [Foretinib] (partner 0.25 µM)
A digest of the protocol:
(§1)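 Each reported value is a median over duplicate plates. It expresses relative viability: treated-well nuclei count divided by vehicle-well nuclei count. Lung cancer cell lines in 1536-well plates were dosed by pin tool a day after seeding, alone with one drug or with a fixed anchor-drug dose plus five library-drug doses (not always all listed) in √10 steps, and nuclei were counted after 5 days.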

Compound in the experiment “Dinaciclib + Lapatinib”: CCc1cnn2c(NCc3ccc[n+]([O-])c3)cc(N3CCCC[C@H]3CCO)nc12 [Dinaciclib] + CS(=O)(=O)CCNCc1ccc(-c2ccc3ncnc(Nc4ccc(OCc5cccc(F)c5)c(Cl)c4)c3c2)o1 [Lapatinib] (partner 2 µM)
A digest of the protocol:
as §1

Compound in the experiment “Dinaciclib + Dasatinib”: CCc1cnn2c(NCc3ccc[n+]([O-])c3)cc(N3CCCC[C@H]3CCO)nc12 [Dinaciclib] + Cc1nc(Nc2ncc(C(=O)Nc3c(C)cccc3Cl)s2)cc(N2CCN(CCO)CC2)n1 [Dasatinib] (partner 0.075 µM)
The method, boiled down: as §1

Compound in the experiment “Dinaciclib + Navitoclax”: CCc1cnn2c(NCc3ccc[n+]([O-])c3)cc(N3CCCC[C@H]3CCO)nc12 [Dinaciclib] + CC1(C)CCC(c2ccc(Cl)cc2)=C(CN2CCN(c3ccc(C(=O)NS(=O)(=O)c4ccc(N[C@H](CCN5CCOCC5)CSc5ccccc5)c(S(=O)(=O)C(F)(F)F)c4)cc3)CC2)C1 [Navitoclax] (partner 0.5 µM)
A digest of the protocol:
as §1

Compound in the experiment “Dinaciclib + Trametinib”: CCc1cnn2c(NCc3ccc[n+]([O-])c3)cc(N3CCCC[C@H]3CCO)nc12 [Dinaciclib] + CC(=O)Nc1cccc(-n2c(=O)n(C3CC3)c(=O)c3c(Nc4ccc(I)cc4F)n(C)c(=O)c(C)c32)c1 [Trametinib] (partner 0.02 µM)
The method, boiled down: as §1

For NCI-H1944, the relative viability came out at 0.892 with Dinaciclib + Foretinib (first compound 0.009487 µM); 0.191 with Dinaciclib + Foretinib (first compound 0.03 µM); 0.152 with Dinaciclib + Foretinib (first compound 0.09487 µM); 0.134 with Dinaciclib + Foretinib (first compound 0.3 µM); 0.936 in the experiment with Dinaciclib + Lapatinib (first compound 0.009487 µM); 0.169 with Dinaciclib + Lapatinib (first compound 0.03 µM). Besides, the relative viability worked out at 0.143 with Dinaciclib + Lapatinib (first compound 0.09487 µM); 0.147 in the experiment with Dinaciclib + Lapatinib (first compound 0.3 µM); 0.267 with Dinaciclib + Dasatinib (first compound 0.009487 µM); 0.117 in the experiment with Dinaciclib + Dasatinib (first compound 0.03 µM); 0.117 with Dinaciclib + Dasatinib (first compound 0.09487 µM); 0.13 with Dinaciclib + Dasatinib (first compound 0.3 µM). Moreover, the relative viability in the experiment with Dinaciclib + Navitoclax (first compound 0.009487 µM) is 1.19; with Dinaciclib + Navitoclax (first compound 0.03 µM), 0.67; with Dinaciclib + Navitoclax (first compound 0.09487 µM) it was 0.177; with Dinaciclib + Navitoclax (first compound 0.3 µM), 0.169; with Dinaciclib + Trametinib (first compound 0.009487 µM) it was 0.462; with Dinaciclib + Trametinib (first compound 0.03 µM) it was 0.161. For the same cell line, the relative viability with Dinaciclib + Trametinib (first compound 0.09487 µM) is 0.152; with Dinaciclib + Trametinib (first compound 0.3 µM), 0.144.

For NCI-H1975, the relative viability with Dinaciclib + Foretinib (first compound 0.009487 µM) is 0.868; with Dinaciclib + Foretinib (first compound 0.03 µM) it was 0.185; with Dinaciclib + Foretinib (first compound 0.09487 µM) it was 0.107; in the experiment with Dinaciclib + Foretinib (first compound 0.3 µM) it was 0.099; with Dinaciclib + Lapatinib (first compound 0.009487 µM), 0.561; with Dinaciclib + Lapatinib (first compound 0.03 µM), 0.129. In addition, the relative viability with Dinaciclib + Lapatinib (first compound 0.09487 µM) worked out at 0.107; with Dinaciclib + Lapatinib (first compound 0.3 µM), 0.133; in the experiment with Dinaciclib + Dasatinib (first compound 0.009487 µM), 0.483; with Dinaciclib + Dasatinib (first compound 0.03 µM), 0.263; with Dinaciclib + Dasatinib (first compound 0.09487 µM), 0.0967; in the experiment with Dinaciclib + Dasatinib (first compound 0.3 µM) it was 0.0711. In addition, the relative viability is 1.08 with Dinaciclib + Navitoclax (first compound 0.009487 µM); 0.143 with Dinaciclib + Navitoclax (first compound 0.03 µM); 0.137 with Dinaciclib + Navitoclax (first compound 0.09487 µM); 0.128 with Dinaciclib + Navitoclax (first compound 0.3 µM); 0.343 with Dinaciclib + Trametinib (first compound 0.009487 µM); 0.187 with Dinaciclib + Trametinib (first compound 0.03 µM). Besides, the values for the relative viability with Dinaciclib + Trametinib (first compound 0.09487 µM) and with Dinaciclib + Trametinib (first compound 0.3 µM) were 0.134 and 0.0985, respectively.

With NCI-H1993, the relative viability with Dinaciclib + Foretinib (first compound 0.009487 µM) was 0.922; with Dinaciclib + Foretinib (first compound 0.03 µM), 0.584; with Dinaciclib + Foretinib (first compound 0.09487 µM), 0.65; in the experiment with Dinaciclib + Foretinib (first compound 0.3 µM), 0.544; with Dinaciclib + Lapatinib (first compound 0.009487 µM), 0.869; with Dinaciclib + Lapatinib (first compound 0.03 µM) it was 0.45. The relative viability in the experiment with Dinaciclib + Lapatinib (first compound 0.3 µM) is 0.723; in the experiment with Dinaciclib + Dasatinib (first compound 0.009487 µM), 0.637; in the experiment with Dinaciclib + Dasatinib (first compound 0.03 µM) it was 0.509; with Dinaciclib + Dasatinib (first compound 0.09487 µM), 0.481; with Dinaciclib + Dasatinib (first compound 0.3 µM), 0.576; with Dinaciclib + Navitoclax (first compound 0.009487 µM), 0.799. The relative viability with Dinaciclib + Navitoclax (first compound 0.03 µM) is 0.499; with Dinaciclib + Navitoclax (first compound 0.3 µM) it was 0.562; with Dinaciclib + Trametinib (first compound 0.009487 µM), 0.632; with Dinaciclib + Trametinib (first compound 0.03 µM), 0.419; in the experiment with Dinaciclib + Trametinib (first compound 0.09487 µM), 0.511; in the experiment with Dinaciclib + Trametinib (first compound 0.3 µM), 0.479.

In the case of NCI-H2009, the relative viability with Dinaciclib + Foretinib (first compound 0.009487 µM) turned out to be 1.3; in the experiment with Dinaciclib + Foretinib (first compound 0.03 µM), 0.144; with Dinaciclib + Foretinib (first compound 0.09487 µM) it was 0.103; with Dinaciclib + Foretinib (first compound 0.3 µM), 0.0969; with Dinaciclib + Lapatinib (first compound 0.009487 µM) it was 0.493; with Dinaciclib + Lapatinib (first compound 0.03 µM), 0.108. Besides, the relative viability with Dinaciclib + Lapatinib (first compound 0.09487 µM) was determined as 0.101; with Dinaciclib + Lapatinib (first compound 0.3 µM) it was 0.0913; with Dinaciclib + Dasatinib (first compound 0.009487 µM), 0.199; with Dinaciclib + Dasatinib (first compound 0.03 µM), 0.0887; in the experiment with Dinaciclib + Dasatinib (first compound 0.09487 µM) it was 0.072; with Dinaciclib + Dasatinib (first compound 0.3 µM) it was 0.0636. Moreover, the relative viability stood at 1.01 with Dinaciclib + Navitoclax (first compound 0.009487 µM); 0.515 in the experiment with Dinaciclib + Navitoclax (first compound 0.03 µM); 0.0255 with Dinaciclib + Navitoclax (first compound 0.09487 µM); 0.031 in the experiment with Dinaciclib + Navitoclax (first compound 0.3 µM); 0.288 with Dinaciclib + Trametinib (first compound 0.009487 µM); 0.0748 with Dinaciclib + Trametinib (first compound 0.03 µM). The figures for the relative viability in the experiment with Dinaciclib + Trametinib (first compound 0.09487 µM) and with Dinaciclib + Trametinib (first compound 0.3 µM) were 0.0773 and 0.0564, respectively.
